Broadly, the EC50 is the concentration that produces a half-maximal response.

Substitutions are numbered along the chain they refer to.

Assay [1] addresses T1, hTAS2R16 (ssr3-hTAS2R16) (Homo sapiens, UniProt Q9NYV7).
T1 sequence (Q9NYV7 1-291): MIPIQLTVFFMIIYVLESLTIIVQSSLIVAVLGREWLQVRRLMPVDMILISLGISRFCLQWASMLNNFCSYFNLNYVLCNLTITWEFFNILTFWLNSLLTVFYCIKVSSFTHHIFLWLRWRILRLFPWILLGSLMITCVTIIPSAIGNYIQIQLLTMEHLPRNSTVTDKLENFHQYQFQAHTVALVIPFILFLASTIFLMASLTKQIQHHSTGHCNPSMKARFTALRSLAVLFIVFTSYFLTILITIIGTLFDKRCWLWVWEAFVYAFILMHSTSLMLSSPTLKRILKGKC
Description: Fluo-4 calcium assay, HEK293T + Galpha16gust44. Type of assay: cell-based.

The target in assay [2] is T2, hTAS2R16 (ssr3-hTAS2R16) (Homo sapiens, UniProt Q9NYV7, E86D).
T2 sequence (Q9NYV7 1-291 E86D): T1 sequence (Q9NYV7 1-291) with E86D
Briefly: Fluo-4 calcium assay, HEK293T + Galpha16gust44. Type of assay: cell-based.

Consider `OC[C@H]1O[C@@H](Oc2ccc(O)cc2)[C@H](O)[C@@H](O)[C@@H]1O` [arbutin], for which the EC50 on hTAS2R16 (ssr3-hTAS2R16) [1] stood at 1.34 mM; at hTAS2R16 (ssr3-hTAS2R16) [2], 10.6 mM.

Values taken from PMC2934701 (The Journal of Biological Chemistry, 2010).
